Assay results as given in patent US9157054B2, “Device and method for preparing microparticles” (The University of Queensland, priority 2007, dated 2015).
Converted amounts (≈) assume the structure as drawn. “And” between values parts separate entries of the source, which are not always exact repeats. Equal values may be shown once.

How the values were obtained:
[1] = Particle size by optical microscopy; type: physicochemical
Source text: Alginate gel microparticles were examined using an optical microscope (Zeiss, AXIOSCOP 40) with […] attachment (AXIOCam MRm). The morphology and particle size of GS-loaded alginate microparticles were characterized according to the methods described above. The morphology of insulin-loaded alginate gel microparticles and the particle size were characterized according to the methods described above. The morphology and particle size was characterized according to the methods described above.

physchem = details: aqueous buffer
[2] = British Pharmacopoeia 2008; cited from earlier work

- powder particle size ([1]; 'as received' powder, before size reduction): 30-100 micron and 30-40 micron
- crystal / powder particle size ([1]; after precipitation from acetone into alginate solution, optical microscope): 10-15 microns
- solubility (physchem): 300 µg/mL (≈ 1450 µM)
Compound: CC(C)Cc1ccc(C(C)C(=O)O)cc1 (centres unmarked) [ibuprofen]
- solubility in acetone, methanol and dichloromethane (DCM) [2]: freely soluble
- solubility in water [2]: practically insoluble
